Measurements published in patent US20060035820A1, “New derivatives of echinocandine, their preparation process and their use as antifungals” (AVENTIS PHARMA S.A., priority 1999, published 2006).

Biological target: T1, Glucan Synthase of Candida albicans (Candida albicans, UniProt O13428)
T1 construct: endogenous in cells; host or cells: Candida albicans membrane preparation (method of Tang et al. 1991)
Experiment: Inhibition of the Glucan Synthase of Candida albicans
Format: biochemical
Settings: Candida albicans membranes, 14C-UDP glucose, 25° C. for 1 hour
Procedure: A—Inhibition of the Glucan Synthase of Candida albicans.
Candida albicans membranes were purified according to the process described by Tang et al Antimicrob. Agents Chemother 35, 99-103, 1991. 22.5 μg of membrane proteins are incubated in a mixture of 2 Mm of 14C-UDP glucose (specific activity=0.34 mCi./mmol, 50 μg of α-amylase, 1 Mm of dithiotreitol (DTT), 1 Mm EDTA, 100 Mm NaF, 7 μM of GTP-γ-S, 1M of sucrose and 50 Mm of Tris-HCL (pH 7.8) in a volume of 100 μl. The medium is incubated at 25° C. for 1 hour and the reaction is terminated by adding TCA at a final concentration of 5%. The reaction mixture is transferred onto a pre-humidified glass fibre filter. The filter is washed, dried and its radioactivity is counted. Mulundocandine is used as a positive control. Control of the vehicle is carried out with the same quantity of 1% DMSO.

T1 sequence (O13428 1-1897): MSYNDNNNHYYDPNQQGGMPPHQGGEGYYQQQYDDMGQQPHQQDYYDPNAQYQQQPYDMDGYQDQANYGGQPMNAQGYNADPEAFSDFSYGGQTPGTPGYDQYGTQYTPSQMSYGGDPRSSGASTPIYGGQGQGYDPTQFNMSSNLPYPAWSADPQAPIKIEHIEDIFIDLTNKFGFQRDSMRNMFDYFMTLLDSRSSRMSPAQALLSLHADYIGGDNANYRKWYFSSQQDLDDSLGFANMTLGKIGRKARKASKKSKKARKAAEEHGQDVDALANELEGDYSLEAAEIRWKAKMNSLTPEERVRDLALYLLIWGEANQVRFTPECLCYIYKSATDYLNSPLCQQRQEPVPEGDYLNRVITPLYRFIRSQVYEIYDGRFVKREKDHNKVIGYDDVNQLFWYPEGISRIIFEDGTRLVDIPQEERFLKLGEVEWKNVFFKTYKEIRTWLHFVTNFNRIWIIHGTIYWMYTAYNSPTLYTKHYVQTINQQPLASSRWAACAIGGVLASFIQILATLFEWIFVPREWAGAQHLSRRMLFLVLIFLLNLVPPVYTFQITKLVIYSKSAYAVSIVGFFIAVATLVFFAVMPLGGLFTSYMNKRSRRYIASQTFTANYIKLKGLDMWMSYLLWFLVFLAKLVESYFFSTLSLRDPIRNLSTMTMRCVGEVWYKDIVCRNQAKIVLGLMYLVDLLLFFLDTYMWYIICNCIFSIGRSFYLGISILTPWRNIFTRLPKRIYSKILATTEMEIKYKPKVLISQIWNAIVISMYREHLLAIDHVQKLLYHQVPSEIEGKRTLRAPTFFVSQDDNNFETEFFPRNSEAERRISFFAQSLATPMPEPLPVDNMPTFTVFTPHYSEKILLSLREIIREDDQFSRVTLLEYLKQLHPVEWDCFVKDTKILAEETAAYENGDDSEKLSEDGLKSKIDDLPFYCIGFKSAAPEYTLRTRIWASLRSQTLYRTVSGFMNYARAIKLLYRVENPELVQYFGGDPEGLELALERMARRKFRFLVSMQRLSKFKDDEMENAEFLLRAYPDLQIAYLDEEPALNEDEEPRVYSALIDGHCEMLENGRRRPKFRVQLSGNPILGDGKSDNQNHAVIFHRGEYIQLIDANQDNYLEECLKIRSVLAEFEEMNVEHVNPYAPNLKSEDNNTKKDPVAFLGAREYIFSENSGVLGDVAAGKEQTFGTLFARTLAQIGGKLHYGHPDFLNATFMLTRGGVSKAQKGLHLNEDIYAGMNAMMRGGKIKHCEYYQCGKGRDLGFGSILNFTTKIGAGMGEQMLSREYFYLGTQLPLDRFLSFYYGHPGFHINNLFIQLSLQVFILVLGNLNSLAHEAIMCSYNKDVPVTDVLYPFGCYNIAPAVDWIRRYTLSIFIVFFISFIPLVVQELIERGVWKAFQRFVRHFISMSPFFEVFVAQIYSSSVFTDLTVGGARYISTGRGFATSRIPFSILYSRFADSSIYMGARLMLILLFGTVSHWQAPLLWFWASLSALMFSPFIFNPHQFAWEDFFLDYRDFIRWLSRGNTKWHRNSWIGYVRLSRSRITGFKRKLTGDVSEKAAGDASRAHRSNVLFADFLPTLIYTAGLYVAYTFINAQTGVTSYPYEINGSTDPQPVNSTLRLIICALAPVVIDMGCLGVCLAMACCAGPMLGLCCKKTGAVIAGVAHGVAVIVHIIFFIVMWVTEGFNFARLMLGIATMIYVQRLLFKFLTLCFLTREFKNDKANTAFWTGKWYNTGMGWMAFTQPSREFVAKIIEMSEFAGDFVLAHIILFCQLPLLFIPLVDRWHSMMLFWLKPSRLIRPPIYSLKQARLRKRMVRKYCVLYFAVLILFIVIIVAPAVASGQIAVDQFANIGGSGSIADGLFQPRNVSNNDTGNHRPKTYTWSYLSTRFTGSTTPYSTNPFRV
T1 sequence (O42825 1-195 partner limits assumed): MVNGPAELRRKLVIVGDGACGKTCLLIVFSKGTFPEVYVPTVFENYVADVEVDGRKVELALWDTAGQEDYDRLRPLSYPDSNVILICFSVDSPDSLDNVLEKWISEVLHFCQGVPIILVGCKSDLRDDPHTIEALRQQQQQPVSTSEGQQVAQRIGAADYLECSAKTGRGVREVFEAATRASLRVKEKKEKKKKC

Trans 1-[4-[(2-aminocyclo-hexyl)-amino]-N2-[[4″-(pentyloxy)[1,1′:4′,1″-terphenyl]-4-yl)]-carbonyl]-L-ornithine]-4-[4-(4-hydroxyphenyl)-L-threonine]-5-L-serine-echinocandin B trifluoroacetate (isomer A). [Example 3 isomer A]
Inhibition of the glucan synthase of Candida albicans (activity in words): good activity
